Read-outs that look alike come from different tables or passages of the source.
Key:
[1] = system: Lactobacillus delbrueckii STYM1 strain pyruvate oxidase (L. delbrueckii Pox, LDBND_1487), wild type, full-length; assay: Phospholipid activation assay of L. delbrueckii Pox; type: biochemical; settings: various concentrations; 16:0-18:1 acyl chains
Method: (§1) Pyruvate oxidase enzyme or pyruvate:oxygen 2-oxidoreductase (phosphorylating) (EC 1.2.3.3) was derived from Lactobacillus delbrueckii STYM1 strain (16).
Pyruvate oxidase activity was measured as previously described (16). Briefly, 50 mM sodium pyruvate, 15 μM FAD, 300 μM TPP, 0.03% N-ethyl-N-(2-hydroxy-3-sulfopropyl)-m-toluidine (sigma), 0.015% 4-aminoantipyrine (sigma), and 33 μg/mL horseradish peroxidase (Sigma) were combined with purified pox enzyme. After a 10-minute incubation at room temperature, sodium phosphate pH 5.6 was added to 50 mM final concentration to initiate the reaction. The formation of a quinoneimine dye at 25° C. was measured by an increase in absorbance at 550 nm and the specific activity was calculated as described. 1 unit of Pox activity is defined as the production of 1 μmol of hydrogen peroxide per minute and this was converted to μM/min for kinetic analysis.
Phosphotidylethanolamine (16:0-18:1) (Avanti Lipids), Phosphotidylcholine (16:0-18:1) (Avanti Lipids), and Phosphotidylglycerol (16:0-18:1) (Avanti Lipids) dissolved in chloroform were evaporated under a steady stream of argon gas and dried in a vacuum desiccator for 1 hour to evaporate residual chloroform. The phospholipids were resuspended in 20 mM Bis-Tris 150 mM NaCl pH 6 and incubated at 37° C. with shaking at 225 rpm for 30 minutes. The suspension was vortexed for 30 seconds and vortexed immediately prior to each use.
(§2) Phospholipids were added to the pyruvate oxidase assay mixture at various concentrations and enzyme activity was measured as described above. Fold activity was calculated relative to enzyme activity without phospholipid.

[2] = system: Lactobacillus delbrueckii STYM1 strain pyruvate oxidase (L. delbrueckii Pox, LDBND_1487), wild type, C-terminal His6; assay: Pyruvate oxidase activity assay and kinetic parameters (oxidative coupling, H2O2 production, A550); type: biochemical; settings: for Km: 25° C.
Method: The C-terminal primer encoded a glycine-serine linker followed by a 6-histidine tag and a stop codon. The PCR product was ligated into the pFLAG-CTC vector (Sigma) using the NdeI and XhoI restriction sites and transformed into DH5α E. coli resulting in the plasmid pFLAG-CTC_Pox. The construct was confirmed by PCR and sequencing. pFLAG-CTC_Pox was transformed into LOBSTR E. coli in which Pox was expressed as a C-terminal His6-Pox. A 6 mL starter culture was incubate at 37° C. overnight in LB supplemented with 100 μg/mL of ampicillin. The starter culture was diluted 1:100 into 40 mL of LB supplemented with 100 μg/mL of ampicillin and grown at 37° C. until the OD600 reached 0.4-0.8. The temperature was then shifted to 26° C. and the cells were incubated with 1 mM isopropyl-β-D-thiogalactopyranoside (IPTG) for 20 hours. The cells were harvested by centrifugation at 3,200×g for 10 minutes, resuspended in 1 mL PBS EDTA-free cOmplete protease inhibitor cocktail (Roche), and lysed by sonication on ice, as described above. […] Protein purity was assessed by SDS-PAGE and Coomassie staining.
Pyruvate oxidase activity of recombinant Pox was assessed by an oxidative coupling reaction. […] Immediately upon addition of purified Pox, the formation of a quinoneimine dye was measured by an increase in the absorbance at 550 nm which was recorded every 30 seconds at room temperature. […] Pox activity is assessed by determining the change in absorbance at 550 nm per minute. […] Activity was determined according to the following equation: specific activity=[(ΔA550/min)(dilution factor)(total reaction volume)]/[(36.88)(0.5)(path length)(sample volume)(C)], where the total reaction volume is 1 ml, the millimolar extinction coefficient of quinoneimine dye is 36.88, the factor of 0.5 was determined based on the fact that 1 mol of hydrogen peroxide produces 0.5 mol of quinoneimine dye, the light path length is 1 cm, the sample volume is 0.1 ml, and C is the concentration of undiluted enzyme in mg/ml. […]
Pyruvate oxidase activity was measured as previously described (16). […]

[3] = system: Lactobacillus delbrueckii STYM1 strain pyruvate oxidase (L. delbrueckii Pox, LDBND_1487), wild type; assay: PE co-sedimentation; type: binding; settings: 1 mM PE, 50 mM pyruvate, 300 μM TPP, 15 μM FAD, 30 minutes at room temperature
Method: as §1
PE was prepared as described above for activation experiments. 3 μg of L. delbrueckii Pox was incubated with 50 mM pyruvate, 300 μM TPP, and 15 μM FAD with either 1 mM PE or no PE for 30 minutes at room temperature. The PE fraction was precipitated by centrifugation at 16,000×g for 20 minutes at 4° C. The supernatant was aspirated as the soluble fraction and the PE pellet was resuspened in an equal amount of buffer. The fractions were visualized by Coomassie staining after SDS-PAGE.

[4] = system: Lactobacillus delbrueckii STYM1 pyruvate oxidase variant Δ32 (C-terminal truncation lacking the last 32 amino acids); assay: Phospholipid activation assay of L. delbrueckii Pox Δ32; type: biochemical; settings: various PE concentrations
From the text: The C-terminus of E. coli Pox is important for lipid activation of the enzyme (13). To test if the C-terminus was important in the L. delbrueckii Pox, a C-terminal truncation was generated that lacked the last 32 amino acids. The enzyme was purified and tested for its ability to be activated by PE (FIG. 18A). […] This is consistent with the E. coli pox truncation having greater activity partially mimicking lipid activation (20). Furthermore, the Δ32 enzyme was only weakly activated by PE to approximately 2-fold greater than the enzyme without PE compared to an approximately 6-fold activation with the full-length enzyme (FIG. 15B and FIG. 18C).
The PCR product was ligated into the pFLAG-CTC vector (Sigma, St. Louis, MO) using the NdeI and XhoI restriction sites. […] The construct was transformed into LOBSTR E. coli, in which the L. delbrueckii Δ32 Pox was expressed as a C-terminal His6-Pox. […] Protein purity was assessed by SDS-PAGE and Coomassie staining.
Pyruvate oxidase activity was measured as previously described (16). […] The formation of a quinoneimine dye at 25° C. was measured by an increase in absorbance at 550 nm and the specific activity was calculated as described. […]
as §2

`CCCCCCCC/C=C\CCCCCCCC(=O)O[C@H](COC(=O)CCCCCCCCCCCCCCC)COP(=O)([O-])OCC[N+](C)(C)C` [PC, Phosphotidylcholine (16:0-18:1)] was tested, and the “catalytic activation by phospholipid (in words)” value (“catalytic activation” for short) [1] was “not PC or PG”.
`CCCCCCCC/C=C\CCCCCCCC(=O)O[C@H](COC(=O)CCCCCCCCCCCCCCC)COP(=O)(O)OCCN` [PE, Phosphotidylethanolamine (16:0-18:1)] was tested, and the “increase in kcat relative to the enzyme in the absence of PE” value ([2]; 7.2 mM PE vs no PE) was “approximately 18 fold”, the “co-precipitation with PE” value [3] was “did not co-precipitate with PE” and the “fold activity relative to the enzyme without PE” value [4] was “approximately 2 fold”. For the same molecule, the “catalytic activation” value [1] was “catalytically activated specifically by PE”.
For `CCCCCCCC/C=C\CCCCCCCC(=O)O[C@H](COC(=O)CCCCCCCCCCCCCCC)COP(=O)(O)OCC(O)CO` (some centres unmarked) [PG, Phosphotidylglycerol (16:0-18:1)], the “catalytic activation” value [1] was “not PC or PG”.
With phosphate the Km ([2]; with 7.2 mM PE, 170 nM enzyme, read-out: km for phosphate (with PE)) was 1.25 mM and the Km ([2]; without PE, 1.76 μM enzyme, pyruvate 50 mM, pH 5.6, read-out: km for phosphate) was 8 mM.

Source: US12472213B2, “Strains of Lactobacillus delbrueckii which inhibit Porphyromonas gingivalis” (Trustees of Tufts College, priority 2019, dated 2025)
